Measured values taken from publication PMC10641831 (Journal of Medicinal Chemistry, 2023).
Like-named read-outs stand apart in the source and are kept apart here. Numbered stars: 1 amine (or outer) side, 2 acyl side, 3 side chain; on linkers, the order of the positions; unused ones are H or OH. Bridge positions count the residues as written; N and C are the ends. Square brackets hold non-standard residues; d marks the D form. Peptide text beside a SMILES is read from it. AMPB(E) = O=C(c1ccc(/N=N/c2ccc(CN[*:1])cc2)cc1)[*:2]; X1 = O=C([C@H](Cc1ccc(/N=N/c2ccccc2)cc1)N[*:1])[*:2]; X2 = O=C(c1ccc(/N=N\c2ccc(CN[*:1])cc2)cc1)[*:2]

Columns and labels:
[1] = Photostationary state by analytical C18-RP-HPLC; assay type: physicochemical; settings: for PSS (E → Z): irradiation with 340 nm, HEPES buffer; for PSS (Z → E): irradiation with 420 nm (8–17) or 528 nm (18, 19)
Method: All photoprobes were investigated regarding their photophysical properties in aqueous buffer (pH 7.5), mimicking the conditions of the biological functional assays.
1.3.2. Photostationary States
Photostationary states (PSS) were measured on analytical C18-RP-HPLC (flow: 0.3 mL/min, solvent A: H2O (0.05% TFA), solvent B: MeCN). To determine the PSS of the photoswitches, the samples (in 0.1 mM in HEPES buffer + 1% DMSO, pH 7.5) were irradiated first with 340 nm to get the Z-isomer. Afterwards, the sample was irradiated with 420 nm (8-17) or 528 nm (18 and 19), respectively, to get back to the E-isomer. The samples were measured at the isosbestic points.

[2] = Thermal half-life of the Z-isomer (UV/vis, 96-well plate); assay type: physicochemical; settings: 25 °C; for t1/2 (thermal half-life, Figure S50): 50 µM in HEPES buffer + 0.25% DMSO, pre-irradiated with 340 nm; for t1/2 (thermal half-life Z to E): preirradiation with 340 nm, HEPES buffer pH 7.4
Excerpt: All photoprobes were investigated regarding their photophysical properties in aqueous buffer (pH 7.5), mimicking the conditions of the biological functional assays. […] Upon irradiation with 340 nm light for 10 s and monitoring via UV/vis spectroscopy, all compounds could be switched to the Z-isomer, reaching the photostationary state (PSS). Compounds 8–17 containing azobenzene could be switched back to the E-isomer by irradiation at 420 nm for 60 s. Compounds 18 and 19 containing arylazopyrazole could be reverted to the E isomer by using 528 nm light. […] The PSS, when switched to the Z-isomer, was consistently good, with a PSS of 81–95%. […] The thermal half-lives of 10 and 12 were also measured at 37 °C, representing the temperature during the biological assays. As expected, the thermal half-lives decreased, however, the ratio of E and Z isomers remained stable during the incubation period of the biological assays (1 h).
Starting materials and commercial reagents were purchased from Acros, Alfa Aesar, Fisher, Fluka, Fluorochem, Merck (Sigma-Aldrich), TCI and VWR and were used without further purification. Solvents were used in p.a. quality or dried according to common procedures if necessary. All reactions with oxygen- or moisture-sensitive reagents were carried out in glassware that was dried before use by heating under vacuum. Dry nitrogen or argon was used for an inert gas atmosphere. All NMR spectra were measured at room temperature (20 °C) using a Bruker Avance 400 (400 MHz for ^1H and 101 MHz for ^13C) or a Bruker Avance 600 (600 MHz for ^1H and 151 MHz for ^13C) NMR spectrometer. All chemical shifts are reported in δ-scale as parts per million [ppm] (multiplicity, coupling constant J, number of protons) relative to the solvent residual peaks. Coupling constants J are given in hertz [Hz]. Abbreviations used for signal multiplicity: ^1H NMR: s = singlet, d = doublet, dd = doublet of doublets, ddd = doublet of doublets of doublets, dt = doublet of triplets, t = triplet, td = triplet of doublets, q = quartet, and m = multiplet. All mass spectra were recorded on an Agilent Q-TOF 6540 UHD, Finnigan MAT SSQ 710 A, Jeol AccuTOF GCX or ThermoQuest Finnigan TSQ 7000 spectrometer. Absorption spectra were recorded on an UV/vis Agilent Cary 50 spectrometer. Thermal half-lives were measured on a 96-well plate in a Thermo Scientific Multiskan Spectrum. Analytical TLC was performed on silica gel-coated alumina plates (MN precoated TLC-sheets ALUGRAM Xtra SIL G/UV254). Visualization was done using UV light (254 or 366 nm) or staining with ninhydrin solution. Column chromatography was performed on a Biotage Isolera One automated flash purification system with a UV/vis detector. Analytical RP-HPLC was carried out on an Agilent 1220 Infinity LC System (column: P/No 00F-4251-B0, Phenomenex Luna 3 μm C18(2) 100 Å, LC column 150 mm × 2.0 mm). Purification by preparative HPLC was conducted on a preparative HPLC Agilent 1260 Infinity LC System [column: P/No 00G-4253-P0-AX, Phenomenex Luna 10 μm C18(2) 100 Å, LC column 250 mm × 21.2 mm]. The eluent systems were used as specified. After the purification process, solvents were removed by lyophilization. Switching experiments were done with a 340 nm LED (SSC VIOSYS CUD4AF1B, 500 mA, 55 mW), 420 nm LED (ILH-XC01-S410-SC211-WIR200, 800 mA, 440 mW), and 528 nm LED (OSRAM Oslon SSL 80 green, 500 mA, 34 mW). Purity of all photoprobes was >95% as determined by analytical RP-HPLC at 220 nm in DMSO.
1.3.4. Thermal Half-lives
Thermal half-lives were measured in a 96-well plate in a Thermo Scientific Multiskan® Spectrum at 25 °C (and at 37 °C for compounds 10 and 12). The solutions (50 µM in HEPES buffer + 0.25% DMSO) were pre-irradiated with 340 nm. The absorption at 335 nm was measured every 3 h. The data was analyzed using Origin 2021.
0,7 1/2 ExpDec1 Fit of Sheet1 B
Modell ExpDec1 0,35 Modell ExpDec1
0,6 Gleichung y = A 1 *e xp (-x/t1 ) + y0 Gleichung y = A 1 *e xp (-x/t1 ) + y0 […]

[3] = target: T1, hOTR (Homo sapiens, UniProt P30559); test: IP-One accumulation assay, agonist function, HEK293 cells expressing hOTR; assay type: cell-based; settings: for OTR E/Z ratio EC50: ratio of EC50 of E- and Z-isomer; for agonist character at OTR: IP-One assay; for decrease in potency compared to OT at OTR: EC50 vs OT; for Emax: HEK293, relative to the effect of OT, read-out: OTR Emax ± SEM
T1 construct: expressed in transfected cells
T1 sequence (P30559 1-389): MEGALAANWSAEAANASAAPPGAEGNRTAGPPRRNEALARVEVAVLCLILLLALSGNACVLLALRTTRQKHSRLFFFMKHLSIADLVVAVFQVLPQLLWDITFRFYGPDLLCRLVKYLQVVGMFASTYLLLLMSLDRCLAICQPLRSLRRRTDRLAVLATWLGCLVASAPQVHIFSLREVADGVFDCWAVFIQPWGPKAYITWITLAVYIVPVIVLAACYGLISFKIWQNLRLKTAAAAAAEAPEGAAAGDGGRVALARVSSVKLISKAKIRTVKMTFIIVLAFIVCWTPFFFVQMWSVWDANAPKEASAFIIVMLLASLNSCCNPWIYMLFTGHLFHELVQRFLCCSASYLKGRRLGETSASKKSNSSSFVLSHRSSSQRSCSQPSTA

[4] = IP-One, stable HEK293 hOTR, E = thermal equilibrium, Z = PSS after 340 nm, read-out: OTR EC50 ± SEM
[5] = supplementary CSV, read-out: activity E-isomer OTR
[6] = supplementary CSV, read-out: activity Z-isomer OTR

| PSS (E → Z) [1] [%] | t1/2 (thermal half-life, Figure S50) [2] [h] | t1/2 (thermal half-life Z to E) [2] [h] | Compound | EC50 [3, 4] [µM] | OTR E/Z ratio EC50 [3] | Emax [3] [%] | further results |
| --- | --- | --- | --- | --- | --- | --- | --- |
| – | – | – | CC[C@H](C)[C@@H]1NC(=O)[C@H](Cc2ccc(/N=N/c3ccccc3)cc2)NC(=O)[C@@H](N)CSSC[C@@H](C(=O)N2CCC[C@H]2C(=O)N[C@@H](CC(C)C)C(=O)NCC(N)=O)NC(=O)[C@H](CC(N)=O)NC(=O)[C@H](CCC(N)=O)NC1=O [E-8] (H-C[X1]IQNCPLG-NH2; disulfide 1-6) | 4.5 ± 1.01 | 1.3 | – | OTR Emax ± SEM ([3]; relative to the effect of OT): 45 ± 3% |
| 93 | 72 | 72 | CC[C@H](C)[C@@H]1NC(=O)[C@H](Cc2ccc(O)cc2)NC(=O)[C@@H](N)CSSC[C@@H](C(=O)N[C@@H](Cc2ccc(/N=N/c3ccccc3)cc2)C(=O)N[C@@H](CC(C)C)C(=O)NCC(N)=O)NC(=O)[C@H](CC(N)=O)NC(=O)[C@H](CCC(N)=O)NC1=O [compound 9, [AzbS^7]-OT] (H-CYIQNC[X1]LG-NH2; disulfide 1-6) | – | – | – | potency difference between the E and Z isomers at OTR ([3]; EC50 E vs Z): 2.5 fold; agonist character at OTR [3]: full agonist; EC50 [3, 5]: 0.346 ± 0.03 µM; EC50 [3, 6]: 0.136 ± 0.006 µM |
| 93 | 1310 | 1310 | [AzpC(m)^1,Dap^6]-VP [compound 19] | – | – | – | PSS (Z → E) [1]: 87% |
| – | – | – | CC[C@H](C)[C@@H]1NC(=O)[C@H](Cc2ccc(O)cc2)NC(=O)[C@@H](N)CSSC[C@@H](C(=O)NCc2ccc(/N=N\c3ccc(C(=O)N[C@@H](CC(C)C)C(=O)NCC(N)=O)cc3)cc2)NC(=O)[C@H](CC(N)=O)NC(=O)[C@H](CCC(N)=O)NC1=O [Z-11] (H-CYIQNC[X2]LG-NH2; disulfide 1-6) | 0.134 ± 0.017 | 2.0 | 86 ± 1 | decrease in potency compared to OT at OTR [3]: 55 fold |
| – | – | – | CC[C@H](C)[C@@H]1NC(=O)[C@H](Cc2ccc(O)cc2)NC(=O)[C@@H](N)CSSC[C@@H](C(=O)NCc2ccc(/N=N/c3ccc(C(=O)NCC(N)=O)cc3)cc2)NC(=O)[C@H](CC(N)=O)NC(=O)[C@H](CCC(N)=O)NC1=O [E-10] (H-CYIQNC[AMPB(E)]G-NH2; disulfide 1-6) | 0.0946 ± 0.019 | 3.1 | 80 ± 1 | – |
| 94 | 132 | 132 | CC[C@H](C)[C@@H]1NC(=O)[C@H](Cc2ccc(/N=N/c3ccccc3)cc2)NC(=O)[C@@H](N)CSSC[C@@H](C(=O)N2CCC[C@H]2C(=O)N[C@@H](CC(C)C)C(=O)NCC(N)=O)NC(=O)[C@H](CC(N)=O)NC(=O)[C@H](CCC(N)=O)NC1=O [compound 8, [AzbS^2]-OT] (H-C[X1]IQNCPLG-NH2; disulfide 1-6) | – | – | 35 to 45 | decrease in potency compared to OT at OTR [3]: > 1400 fold; agonist character at OTR [3]: partial agonism; EC50 ([3]; IP-One, both isomers, read-out: EC50 at OTR): 3 to 4 µM; EC50 [3, 5]: 4.5 ± 1.01 µM; EC50 [3, 6]: 3.5 ± 1.89 µM |

| Compound | PSS (E → Z) [1] [%] | t1/2 (thermal half-life, Figure S50) [2] [h] | t1/2 (thermal half-life Z to E) [2] [h] | EC50 [3, 4] [µM] | OTR E/Z ratio EC50 [3] | Emax [3] [%] | further results |
| --- | --- | --- | --- | --- | --- | --- | --- |
| [AzbC(m,o)^1,Dap^6]-VP [compound 16] | 89 | 74.4 | 74.4 | – | – | – | PSS (Z → E) [1]: 83% |
